From ChEMBL document CHEMBL5634150, “Design, synthesis and biological evaluation of novel dihydroquinolin-4(1H)-one derivatives as novel tubulin polymerization inhibitors” (Eur J Med Chem, 2023)
≈ marks a conversion by molar mass, not a printed value. Calls of active or inactive are those of the source. No cut-off for these calls is given here.

How the values were obtained:
[1] = Metabolic stability in mouse plasma assessed as compound remaining at 1 uM and measured at 3 hrs by LC-MS/MS analysis; type: ADME, cell-free; details: read-out: Stability
A549 [2] = experiment: Antiproliferative activity against human A549 cells assessed as inhibition of cell growth at 0.1 uM measured after 72 hrs by MTT assay relative to control; type: functional
A549 [3] = experiment: Antiproliferative activity against human A549 cells assessed as inhibition of cell growth at 0.01 uM measured after 72 hrs by MTT assay relative to control; type: functional
K562 [4] = experiment: Antiproliferative activity against human K562 cells assessed as inhibition of cell growth measured after 72 hrs by MTT assay; type: functional, cell-based; details: K562, 72 h
HepG2 = experiment: Antiproliferative activity against human HepG2 cells assessed as inhibition of cell growth measured after 72 hrs by MTT assay; type: functional, cell-based; details: HepG2, 72 h
MDA-MB-231 [5] = experiment: Antiproliferative activity against human MDA-MB-231 cells assessed as inhibition of cell growth measured after 72 hrs by MTT assay; type: functional, cell-based; details: MDA-MB-231, 72 h
[6] = Antiproliferative activity against human HFL1 cells assessed as inhibition of cell growth measured after 72 hrs by MTT assay; type: toxicity, cell-based
[7] = Resistance index, ratio of IC50 for antiproliferative activity against human A549/Taxol cells to IC50 for antiproliferative activity against human A549 cells; type: functional
Tubulin (Homo sapiens) [8] = target: T1, Tubulin (Homo sapiens) (UniProt P68371+Q9H4B7+P0DPH7+P68366+Q13509+Q71U36+P04350+Q3ZCM7+P07437+P68363+Q9BQE3+Q6PEY2+Q13885+Q9BVA1+Q9BUF5); experiment: Inhibition of [3H]colchicine binding to tubulin (unknown origin) at 1 uM incubated for 2 hrs by scintillation counter analysis relative to control; type: protein-complex assay
Tubulin (Homo sapiens) [9] = target: T1, Tubulin (Homo sapiens); experiment: Inhibition of [3H]colchicine binding to tubulin (unknown origin) at 5 uM incubated for 2 hrs by scintillation counter analysis relative to control; type: protein-complex assay
K562 [10] = experiment: Induction of apoptosis in human K562 cells at 1.5 nM measured after 48 hrs by Annexin V-FITC/7-AAD staining based flow cytometric analysis relative to control; type: functional
K562 [11] = experiment: Induction of apoptosis in human K562 cells at 6 nM measured after 48 hrs by Annexin V-FITC/7-AAD staining based flow cytometric analysis relative to control; type: functional
K562 [12] = experiment: Induction of apoptosis in human K562 cells assessed as nuclear fragmentation at 1.5 to 6 nM incubated for 24 hrs by Hoechst 33342 staining based fluorescence microscopic analysis; type: functional, cell-based; details: dose 1.5-6 nM
K562 [13] = experiment: Induction of apoptosis in human K562 cells assessed as increase in bax level at upto 6 nM measured after 48 hrs by Western blot analysis; type: functional, cell-based
K562 [14] = experiment: Induction of apoptosis in human K562 cells assessed as downregulation of bcl-2 level at upto 6 nM measured after 48 hrs by Western blot analysis; type: functional, cell-based
K562 [15] = experiment: Induction of apoptosis in human K562 cells assessed as downregulation of bcl-xl level at upto 6 nM measured after 48 hrs by Western blot analysis; type: functional, cell-based
K562 [16] = experiment: Induction of cell cycle arrest in human K562 cells assessed as accumulation of cells at G1 phase at 1.5 nM incubated overnight by PI staining based flow cytometry analysis (reference value: 78.45%); type: functional
K562 [17] = experiment: Induction of cell cycle arrest in human K562 cells assessed as accumulation of cells at G1 phase at 3 nM incubated overnight by PI staining based flow cytometry analysis (reference value: 78.45%); type: functional
K562 [18] = experiment: Induction of cell cycle arrest in human K562 cells assessed as accumulation of cells at G1 phase at 6 nM incubated overnight by PI staining based flow cytometry analysis (reference value: 78.45%); type: functional
K562 [19] = experiment: Induction of cell cycle arrest in human K562 cells assessed as accumulation of cells at S phase at 1.5 nM incubated overnight by PI staining based flow cytometry analysis (reference value: 15.98%); type: functional
K562 [20] = experiment: Induction of cell cycle arrest in human K562 cells assessed as accumulation of cells at S phase at 3 nM incubated overnight by PI staining based flow cytometry analysis (reference value: 15.98%); type: functional
K562 [21] = experiment: Induction of cell cycle arrest in human K562 cells assessed as accumulation of cells at S phase at 6 nM incubated overnight by PI staining based flow cytometry analysis (reference value: 15.98%); type: functional
K562 [22] = experiment: Induction of cell cycle arrest in human K562 cells assessed as accumulation of cells at G2/M phase at 1.5 nM incubated overnight by PI staining based flow cytometry analysis (reference value: 5.57%); type: functional
K562 [23] = experiment: Induction of cell cycle arrest in human K562 cells assessed as accumulation of cells at G2/M phase at 6 nM incubated overnight by PI staining based flow cytometry analysis (reference value: 5.57%); type: functional
Cell membrane = experiment: Induction of mitochondrial membrane depolarization in human K562 cells assessed as decrease in red fluorescence intensity at incubated for 48 hrs by JC-1 staining based flow cytometry; type: cell membranes; details: dose 1.5-6 nM
MDA-MB-231 [24] = experiment: Inhibition of cell invasion in human MDA-MB-231 cells at 1.5 to 6 nM measured after 48 hrs by crystal violet staining microscopy based transwell assay; type: functional; details: dose 1.5-6 nM
K562 [25] = experiment: Induction of ROS generation in human K562 cells incubated for 24 hrs by DCFH-DA staining based assay; type: functional, cell-based; details: dose 1.5-6 nM
MDA-MB-231 [26] = experiment: Inhibition of cell migration in human MDA-MB-231 cells measured after 48 hrs by crystal violet staining microscopy based transwell migration assay; type: functional; details: dose 1.5-6 nM
HUVEC [27] = experiment: Anti-angiogenesis activity in HUVEC cells at 1.5 to 6 nM measured after 24 hrs by wound healing assay; type: functional, cell-based; details: Homo sapiens, dose 1.5-6 nM
HUVEC [28] = experiment: Anti-angiogenesis activity in HUVEC cells assessed as disruption of capillary tube structure at 1.5 to 6 nM measured after 6 hrs by contrast microscopy based analysis; type: functional, cell-based; details: Homo sapiens, dose 1.5-6 nM
[29] = Aqueous solubility of the compound by HPLC analysis; type: physicochemical; details: aqueous (not further specified)
[30] = Metabolic stability in mouse liver microsomes assessed as half life at 100 uM measure upto 60 mins in presence of NADPH by LC-MS/MS analysis; type: ADME, Microsome
H22 [31] = experiment: Antitumor activity against mouse H22 cells allografted in mouse model assessed as inhibition of tumor volume administered as iv dose for once daily for 3 weeks; type: functional, organism-based; details: dose 10-20 mg/kg
H22 [32] = experiment: Antitumor activity against mouse H22 cells allografted in mouse model assessed as inhibition of tumor weight administered as iv dose for once daily for 3 weeks; type: functional, organism-based; details: dose 10-20 mg/kg
H22 [33] = experiment: Antitumor activity against mouse H22 cells allografted in mouse model assessed as tumor growth inhibition at 20 mg/kg,iv administered once daily for 3 weeks relative to control; type: functional; details: H22, 504 h, read-out: TGI
[34] = Toxicity in mouse assessed as effect on lung at 20 mg/kg by H and E staining based microscopic analysis; type: organism-based; details: in vivo
[35] = Toxicity in mouse assessed as effect on kidney at 20 mg/kg by H and E staining based microscopic analysis; type: organism-based; details: in vivo
H22 [36] = experiment: Antitumor activity against mouse H22 cells allografted in mouse model assessed as decrease in MVD cells at 20 mg/kg by immunohistochemistry analysis; type: functional, organism-based

remaining at 3 h, 1 µM [1]: 105%
IC50 (K562 [4]): 3 nM
IC50 (HepG2): 9 nM
IC50 (MDA-MB-231 [5]): 24 nM
inhibition (Tubulin (Homo sapiens) [8]): 63.9%
inhibition (Tubulin (Homo sapiens) [9]): 75.9%
Activity (Cell membrane): Dose-Dependent Effect
solubility [29]: 6.68 µg/mL (≈ 17.6 µM)
half-life at 100 µM [30]: 10.7 min
Compound: CCn1ccc2cc(N3CCC(=O)c4c3cc(OC)c(OC)c4OC)ccc21
inhibition at 0.1 µM (A549 [2]): 78.3%
inhibition at 0.01 µM (A549 [3]): 73.6%
IC50 at 72 h [6]: 62 nM
Ratio IC50 [7]: 5.38
Activity (K562 [10]): 11.44%
Activity (K562 [11]): 45.82%
Activity (K562 [12]): Active
Activity (K562 [13]): Active
Activity (K562 [14]): Active
Activity (K562 [15]): Active
Activity (K562 [16]): 66.8%
Activity (K562 [17]): 59.63%
Activity (K562 [18]): 47.52%
Activity (K562 [19]): 22.58%
Activity (K562 [20]): 28.04%
Activity (K562 [21]): 30.18%
Activity (K562 [22]): 10.62%
Activity (K562 [23]): 22%
inhibition (MDA-MB-231 [24]): Active
Activity (K562 [25]): Dose-Dependent Effect
inhibition (MDA-MB-231 [26]): Dose-Dependent Effect
Activity (HUVEC [27]): Active
Activity (HUVEC [28]): Active
Activity (H22 [31]): Dose-Dependent Effect
Activity (H22 [32]): Dose-Dependent Effect
inhibition in vivo at 20 mg/kg (H22 [33]): 63.3%
Activity [34]: Non-Toxic
Activity [35]: Non-Toxic
Activity (H22 [36]): Active
